Results from patent publication US8987287B2, “Spirocyclic morphinans and their use” (Purdue Pharma L.P., priority 2012, dated 2015).

What was measured:
κ opioid receptor [1] = biological target: T1, κ opioid receptor (Homo sapiens (Human), UniProt P41145); experiment: κ-opioid receptor radioligand ([3H]-U69,593) dose-displacement binding assay; conditions: binding affinity, read-out: Opioid Receptor Ki (nM) κ
Procedure: κ-Opioid Receptor Binding Assay Procedures: Membranes from recombinantHEK-293 cells, CHO or U-2 OS cells expressing the recombinant human κ opioid receptor (κ) were prepared by lysing cells in ice cold hypotonic buffer (2.5 mM MgCl2, 50 mM HEPES, pH 7.4) (10 mL/10 cm dish) followed by homogenization with a tissue grinder/Teflon pestle. Membranes were collected by centrifugation at 30,000×g for 15 min at 4° C. and pellets were resuspended in hypotonic buffer to a final concentration of 1-3 mg/mL. Protein concentrations were determined using the BioRad protein assay reagent with bovine serum albumen as standard. Aliquots of κ receptor membranes were stored at −80° C.
Radioligand dose displacement assays used 0.4 nM [^3H]-U69,593 (GE Healthcare, Piscataway, N.J.; 40 Ci/mmole) with 15 μg membrane protein (recombinant κ opioid receptor expressed in HEK 293 cells; in-house prep) in a final volume of 200 μl binding buffer (5% DMSO, 50 mM Trizma base, pH 7.4). Non-specific binding was determined in the presence of 10 μM unlabeled naloxone or U69,593. All reactions were performed in 96-well polypropylene plates for 1 hour at a temperature of about 25° C. Binding reactions were terminated by rapid filtration onto 96-well Unifilter GF/C filter plates (Perkin Elmer, Shelton, Conn.) presoaked in 0.5% polyethylenimine (Sigma). Harvesting was performed using a 96-well tissue harvester (Perkin Elmer, Shelton, Conn.) followed by five filtration washes with 200 μl ice-cold binding buffer. Filter plates were subsequently dried at 50° C. for 1-2 hours. Fifty μl/well scintillation cocktail (Perkin Elmer, Shelton, Conn.) was added and plates were counted in a Packard Top-Count for 1 min/well.
In TABLE 1, binding affinity of certain Compounds of the Invention to the μ-, δ- and κ-opioid receptors was determined as described above.

μ-opioid receptor [2] = biological target: T2, μ-opioid receptor (Homo sapiens (Human), UniProt P35372); experiment: μ-opioid receptor [35S]GTPγS functional assay, HEK-293 or CHO cells; type: biochemical
Procedure: (§1) μ-Opioid Receptor Functional Assay Procedures: [^35S]GTPγS functional assays were conducted using freshly thawed μ-receptor membranes prepared in-house from a cell line expressing recombinant μ opioid receptor in a HEK-293, CHO or U-2 OS cell background, or purchased from a commercial source (Perkin Elmer, Shelton, Conn.; or DiscovRx, Fremont, Calif.). Assay reactions were prepared by sequentially adding the following reagents to binding buffer (100 mM NaCl, 10 mM MgCl2, 20 mM HEPES, pH 7.4) on ice (final concentrations indicated): membrane protein (0.026 mg/mL), saponin ([…]), GDP ([…]) and [^35S]GTPγS (0.20 nM; Perkin Elmer, Shelton, Conn.). The prepared membrane solution (190 μl/well) was transferred to 96-shallow well polypropylene plates containing 10 μl of 20× concentrated stock solutions of the agonist [D-Ala^2, N-methyl-Phe^4 Gly-ol^5]-enkephalin (DAMGO) prepared in dimethyl sulfoxide (DMSO). Plates were incubated for 30 min at about 25° C. with shaking. Reactions were terminated by rapid filtration onto 96-well Unifilter GF/B filter plates (Perkin Elmer, Shelton, Conn.) using a 96-well tissue harvester (Perkin Elmer, Shelton, Conn.) followed by three filtration washes with 200 μl of ice-cold wash buffer (10 mM NaH2PO4, 10 mM Na2HPO4, pH 7.4). Filter plates were subsequently dried at 50° C. for 2-3 hours. BetaScint scintillation cocktail (Perkin Elmer, Shelton, Conn.) was added (50 μl/well) and plates were counted using a Packard Top-Count for 1 min/well. Data were analyzed using the sigmoidal dose-response curve fitting functions in GraphPad PRISM v. 3.0, or an in-house function for non-linear, sigmoidal dose-response curve-fitting.
(§2) μ-Opioid Receptor Functional Data: μ GTP EC50 is the concentration of a compound providing 50% of the maximal response for the compound at a μ-opioid receptor.
(§3) μ GTP Emax (%) is the maximal effect elicited by a compound relative to the effect elicited by DAMGO, a standard μ agonist. Generally, the μ GTP Emax (%) value measures the efficacy of a compound to treat or prevent pain or other Conditions.
(§4) In TABLE 2, activity response of certain Compounds of the Invention to the μ-, δ- and κ-opioid receptors was determined as described above for functional assays using HEK-293 or CHO cells.

κ opioid receptor [3] = biological target: T1, κ opioid receptor; experiment: κ-opioid receptor [35S]GTPγS functional assay, HEK-293 or CHO cells; type: biochemical
Procedure: (§5) κ-Opioid Receptor Functional Assay Procedures: Functional [^35S]GTPγS binding assays were conducted as follows. κ opioid receptor membrane solution was prepared by sequentially adding final concentrations of 0.026 μg/μl κ membrane protein (in-house), 10 μg/mL saponin, 3 μM GDP and 0.20 nM [^35S]GTPγS to binding buffer (100 mM NaCl, 10 mM MgCl2, 20 mM HEPES, pH 7.4) on ice. The prepared membrane solution (190 μl/well) was transferred to 96-shallow well polypropylene plates containing 10 μl of 20× concentrated stock solutions of agonist prepared in DMSO. Plates were incubated for 30 min at a temperature of about 25° C. with shaking. Reactions were terminated by rapid filtration onto 96-well Unifilter GF/B filter plates (Perkin Elmer, Shelton, Conn.) using a 96-well tissue harvester (Packard) and followed by three filtration washes with 200 μl ice-cold binding buffer (10 mM NaH2PO4, 10 mM Na2HPO4, pH 7.4). Filter plates were subsequently dried at 50° C. for 2-3 hours. Fifty μl/well scintillation cocktail (Perkin Elmer, Shelton, Conn.) was added and plates were counted in a Packard Top-Count for 1 min/well.
(§6) κ-Opioid Receptor Functional Data: κ GTP EC50 is the concentration of a compound providing 50% of the maximal response for the compound at a κ receptor.
(§7) κ GTP Emax (%) is the maximal effect elicited by a compound relative to the effect elicited by U69,593.
as §4

μ-opioid receptor [4] = biological target: T2, μ-opioid receptor; experiment: μ-opioid receptor [35S]GTPγS functional assay, U-2 OS cells; type: biochemical; conditions: for Emax: relative to DAMGO, U-2 OS cells
Procedure: as §1, §2, §3
(§8) The following TABLE 3 provides results on the activity response of certain Compounds of the Invention at the μ- and κ-opioid receptors determined as described above using U-2 OS cells.

κ opioid receptor [5] = biological target: T1, κ opioid receptor; experiment: κ-opioid receptor [35S]GTPγS functional assay, U-2 OS cells; type: biochemical; conditions: for Emax: relative to U69,593, U-2 OS cells
Procedure: as §5, §6, §7, §8

[6] = relative to DAMGO, HEK-293 or CHO cells
[7] = relative to U69,593, HEK-293 or CHO cells

Row | Compound | Ki (κ opioid receptor [1]) [nM] | EC50 (μ-opioid receptor [4]) [nM] | Emax (μ-opioid receptor [4]) [%] | EC50 (κ opioid receptor [5]) [nM] | Emax (κ opioid receptor [5]) [%] | other results
1 | (4bS,4′S,8aR,9R)-11-(cyclopropylmethyl)-3-hydroxy-5,7,8,8a,9,10-hexahydrospiro[9,4b-(epiminoethano)phenanthrene-6,4′-imidazolidin]-2′-one [Compound 8] | 0.2 ± 0.05 |  |  |  |  | EC50 (μ-opioid receptor [2]; GTPγS, HEK-293 or CHO cells, read-out: Opioid Receptor μ EC50): 7.39 ± 1.89 nM; Opioid Receptor μ Emax (%) (μ-opioid receptor [2]; [6]): 39.67 ± 3.28%; EC50 (κ opioid receptor [3]; GTPγS, HEK-293 or CHO cells, read-out: Opioid Receptor κ EC50): 27.2 ± 8.1 nM; Opioid Receptor κ Emax (%) (κ opioid receptor [3]; [7]): 91.33 ± 5.04%
2 | COc1ccc2c(c1)[C@]13CCN(CC4CC4)[C@H](C2)[C@@H]1CC[C@@]1(C3)NC(=O)NC1=O [Compound 6, (4bS,4′S,8aR,9R)-11-(cyclopropylmethyl)-3-methoxy-5,7,8,8a,9,10-hexahydrospiro[9,4b-(epiminoethano)phenanthrene-6,4′-imidazolidine]-2′,5′-dione] | 12.2 ± 2.61 |  |  |  |  | EC50 (μ-opioid receptor [2]): 1460 ± 121 nM; Emax (μ-opioid receptor [2]; [6]): 58.3 ± 5.24%; EC50 (κ opioid receptor [3]): 1230 ± 380 nM; Emax (κ opioid receptor [3]; [7]): 89.7 ± 3.53%
3 | COc1ccc2c(c1)[C@]13CCN(CC4CC4)[C@H](C2)[C@]1(O)CC[C@@]1(CNC(=O)N1)C3 [Compound 4, (4bR,4′S,8aS,9R)-11-(cyclopropylmethyl)-8a-hydroxy-3-methoxy-5,7,8,8a,9,10-hexahydrospiro[9,4b-(epiminoethano)phenanthrene-6,4′-imidazolidin]-2′-one] | 135 ± 38.1 |  |  |  |  | EC50 (μ-opioid receptor [2]): 809 ± 143 nM; Emax (μ-opioid receptor [2]; [6]): 20.7 ± 0.67%; EC50 (κ opioid receptor [3]): 901 ± 389 nM; Emax (κ opioid receptor [3]; [7]): 44.3 ± 1.45%
4 | O=C1NC(=O)[C@@]2(CC[C@@]3(O)[C@H]4Cc5ccc(O)cc5[C@@]3(CCN4CCCc3ccccc3)C2)N1 [Compound 36, (4bR,4′S,8aS,9R)-3,8a-dihydroxy-11-(3-phenylpropyl)-5,7,8,8a,9,10-hexahydrospiro[9,4b-(epiminoethano)phenanthrene-6,4′-imidazolidine]-2′,5′-dione] |  | 442 ± 21.2 | 77.7 ± 3.53 | 2500 ± 277 | 84.3 ± 2.6 | 
5 | CCN1C(=O)N(CC)[C@]2(CC[C@@]3(O)[C@H]4Cc5ccc(O)cc5[C@@]3(CCN4C)C2)C1=O [Compound 62, (4S,4b′R,8a′S,9′R)-1,3-diethyl-3′,8a′-dihydroxy-11′-methyl-8′,8a′,9′,10′-tetrahydro-5′H,7′H-spiro[imidazolidine-4,6′-[9,4b](epiminoethano)phenantrene]-2,5-dione] |  | 75.2 ± 3.36 | 78 ± 0.58 | 711 ± 37.8 | 108 ± 2.52 | 
6 | O=C1NC(=O)[C@@]2(CC[C@@]3(O)[C@H]4Cc5ccc(O)cc5[C@@]3(CCN4CCCC(F)(F)F)C2)N1 [Compound 34, (4bR,4′S,8aS,9R)-3,8a-dihydroxy-11-(4,4,4-trifluorobutyl)-5,7,8,8a,9,10-hexahydrospiro[9,4b-(epiminoethano)phenanthrene-6,4′-imidazolidine]-2′,5′-dione] |  | 869 ± 131 | 47 ± 2.08 | 2240 ± 120 | 87.7 ± 3.28 | 
7 | COc1ccc2c(c1)[C@]13CCN(CCF)[C@H](C2)[C@]1(O)CC[C@@]1(C3)NC(=O)NC1=O [Compound 14, (4bR,4′S,8aS,9R)-1-(2-fluoroethyl)-8a-hydroxy-3-methoxy-5,7,8,8a,9,10-hexahydrospiro[9,4b-(epiminoethano)phenanthrene-6,4′-imidazolidine]-2′,5′-dione] |  | > 20000 | 14.5 | > 20000 | 110 ± 6.74 | 
8 | CCN1C(=O)N[C@]2(CC[C@@]3(O)[C@H]4Cc5ccc(O)cc5[C@@]3(CCN4C)C2)C1=O [Compound 61, (4S,4b′R,8a′S,9′R)-1-ethyl-3′,8a′-dihydroxy-11′-methyl-8′,8a′,9′,10′-tetrahydro-5′H,7′H-spiro[imidazolidine-4,6′-[9,4b](epiminoethano)phenantrene]-2,5-dione] |  | 39.1 ± 4.82 | 103.3 ± 0.88 | 2480 ± 249 | 109 ± 6.06 | 
9 | CCN1C(=O)N[C@]2(CC[C@@]3(O)[C@H]4Cc5ccc(O)cc5[C@@]3(CCN4CC)C2)C1=O [Compound 31, (4bR,4′S,8aS,9R)-1′,11-diethyl-3,8a-dihydroxy-5,7,8,8a,9,10-hexahydrospiro[9,4b-(epiminoethano)phenanthrene-6,4′-imidazolidine]-2′,5′-dione] |  | 1510 ± 309 | 88.9 ± 0.94 | 445 ± 197 | 102 ± 4.48 | 
10 | CCN1CC[C@]23C[C@]4(CC[C@@]2(O)[C@H]1Cc1ccc(OC)cc13)NC(=O)NC4=O [Compound 15, (4bR,4′S,8aS,9R)-11-ethyl-8a-hydroxy-3-methoxy-5,7,8,8a,9,10-hexahydrospiro[9,4b-(epiminoethano)phenanthrene-6,4′-imidazolidine]-2′,5′-dione] |  | > 20000 | 8 | > 20000 | 65.3 ± 7.86 | 
